Reference: patent publication US20020169101A1, “Treatment of sexual dysfunction” (priority 1999, published 2002)
pKi: −log10 of the molar value.

Columns and labels:
[1] = system: female rat sexual receptivity; assay: Female rat sexual receptivity test (lordosis quotient); assay type: in vivo; conditions: for lordosis quotient (LQ) vs LQ before administration: Compound (2) 10-100 mg/kg oral in PEG200, 1 h, quinelorane 6.25 μg/kg s.c., 90 min (FIG. 21)
Protocol: (§1) Ovariectomised adult female Sprague Dawley rats (180-200 g, from Charles River) were housed in groups of 6 in a reversed lighting system of 12 h light:dark (lights off 7.00-19.00 h). Two weeks after ovariectomy they were used for sexual activity tests. The experiments started at least 5 h into the dark period.
Compound (1) was dissolved in 100% β-cyclodextrin and then diluted with saline to a final solution of 50% 2-hydroxypropyl-β-cyclodextrin. It was administered intraperitoneally (i.p.) at a dose of 10 mg/kg, in a dosing volume of 1 ml/kg. Quinelorane (6.25 μg/kg) was dissolved in water and administered s.c. as positive control. Forty eight hours before testing, ovariectomised female rats (as described above), were primed with 5 μg oestradiol benzoate dissolved in corn oil and injected subcutaneously. […] The females were placed with a series of vigorous male rats and subjected to 10 mounts.
The lordotic response of the animal was recorded and expressed as a percentage of the mounts (i.e. lordosis quotient, LQ), as previously described. Animals showing LQ<20 were considered non-receptive and were included in the study. Each rat was tested prior to administration of the compound and then tested similarly post-injection. The pre-treatment times were 1 h for Compound (1) and vehicle (50% β-cyclodextrin, i.p.) or 90 min for quinelorane.
The above compound was dissolved in PEG200 vehicle and administered orally. Quinelorane dihydrochloride (LY 163,502, 6.25 μg/kg) was dissolved in water and administered subcutaneously (s.c.), as a positive control. Both compounds were administered in a 1 ml/kg volume.
Forty eight hours before tests, the animals were primed with 5 μg oestradiol benzoate (Sigma Chemical. Co. Ltd., UK) dissolved in corn oil and injected subcutaneously. The females were placed with a series of vigorous male rats and subjected to 10 mounts. The lordotic response of the animal was recorded and expressed as a percentage of the mounts (i.e. lordosis quotient, LQ). […] Animals showing higher LQ were not included in the study. […]

human NMB receptor (BB1) = target: T1, human NMB receptor (BB1) (Homo sapiens, UniProt P28336); assay: BB1 binding assay ([125I][Tyr4]bombesin displacement, CHO-K1 membranes); conditions: Table 1, human NMB receptor binding affinity; Ki from IC50 by Cheng-Prusoff; read-out: NMB Ki
T1 construct: expressed in transfected cells; membranes prepared from the cells
In short: (§2)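 Competition against <0.1 nM [125I][Tyr4]bombesin, 60 min for the NMB receptor and 90 min for the GRP receptor, using homogenised membranes of human-receptor-expressing CHO-K1 cells in pH 7.4 Tris buffer. Bound label was filtered and gamma-counted, with 1 μM bombesin as nonspecific. Ki values came from IC50 via Cheng-Prusoff.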

human GRP receptor (BB2) = target: T2, human GRP receptor (BB2) (Homo sapiens, UniProt P30550); assay: BB2 binding assay ([125I][Tyr4]bombesin displacement, CHO-K1 membranes); conditions: Table 1, human GRP receptor binding affinity; Ki from IC50 by Cheng-Prusoff; read-out: GRP Kj
T2 construct: expressed in transfected cells; membranes prepared from the cells
In short: as §2

[2] = system: female rat sexual proceptivity; assay: Female rat sexual proceptivity test (time investigating male vs female stimulus); assay type: in vivo
Protocol: as §1
Tests were carried out in a circular arena of 90 cm diameter, surrounded by a 30 cm high wall. Two small cages with wire-mesh front (15×15 cm) are fixed into the wall such that the front of the cage is <> with the wall and the 2 cages are opposite each other. They contained two stimuli animals: an intact sexually experienced male and a receptive female (ovariectomised, primed with 5 μg oestradiol benzoate dissolved in corn oil and injected subcutaneously 48 hours before the test and with 0.5 mg of progesterone four hours before the test). Sexually naive test and control animals were used. Forty eight hours before the tests, both the test and control animals were primed with 5 μg oestradiol benzoate. For animals used as positive controls, progesterone (0.5 mg/0.1 ml) was dissolved in corn oil and administered subcutaneously (s.c.), 4 h before the test. Test and control animals were introduced one at a time for 10 minute periods into the arena. During the 10 min test, the time that the test or positive control animal spent investigating each stimulus animal was noted. The arena was thoroughly cleaned between animals. The position of the male/female stimuli boxes was randomised between animals, in order to avoid place preference. The difference in the percentage of time spent investigating the male minus the female stimuli was calculated, out of the total time spent investigating stimuli animals.
Compound (1) was dissolved in 100% β-cyclodextrin and then diluted with saline to a final solution of 50% 2-hydroxypropyl-β-cyclodextrin. It was administered intraperitoneally (i.p.) at doses of 3 and 10 mg/kg, in a dosing volume of 1 ml/kg, 1 h before tests. Progesterone (0.5 mg/0.1 ml) was dissolved in corn oil and administered subcutaneously (s.c.), 4 h before test, as a positive control.
Ovariectomised adult female Sprague Dawley rats (180-200 g) were housed in groups of 5 in a reversed lighting system of 12 h light:dark (lights off 5.00-17.00 h). They were used for the experiments at least two weeks after ovariectomy. Forty eight hours before tests, the animals were primed with oestradiol benzoate (5 μg/[…] in corn oil, s.c.). On day 1, progesterone (0.5 mg/0.1 ml, in corn oil, s.c.) was administered to one of the groups 4 h before tests, as a positive control. Compound (1) (15 mg/kg, i.p.) was administered in 50% 2-hydroxypropyl-β-cyclodextrin, 1 h before tests. The test lasted 10 minutes and was carried out as described before. The difference in the percentage of time spent investigating the male minus the female stimuli was calculated, out of the total time spent investigating stimuli animals. Animals were submitted to a test on day 1 and on day 15. From day 2 to 14 the Compound (1) group received a daily injection of the compound (15 mg/kg, i.p.), while both the vehicle and the progesterone groups received an injection of vehicle. On day 15 the test took place again, as described for day 1.
Ovariectomised female rats (Sprague Dawley, obtained from Charles River, UK) were stereotaxically implanted (coordinates 0.89 mm behind Bregma, 1.3 mm lateral and 2.5 mm vertical) with stainless steel cannulae (6 mm long, O.D. 0.75 mm), held in place with dental cement. Animals were housed in groups of three and returned to a reversed lighting system of 12 h light:dark (lights off 5.00-17.00 h). Correct placement of the cannulae was assessed post-mortem. Rats were used for tests two weeks after ovariectomy (one week after cannulation). The experiments started at least 5 h into the dark period. […]

T1 sequence (P28336 whole entry): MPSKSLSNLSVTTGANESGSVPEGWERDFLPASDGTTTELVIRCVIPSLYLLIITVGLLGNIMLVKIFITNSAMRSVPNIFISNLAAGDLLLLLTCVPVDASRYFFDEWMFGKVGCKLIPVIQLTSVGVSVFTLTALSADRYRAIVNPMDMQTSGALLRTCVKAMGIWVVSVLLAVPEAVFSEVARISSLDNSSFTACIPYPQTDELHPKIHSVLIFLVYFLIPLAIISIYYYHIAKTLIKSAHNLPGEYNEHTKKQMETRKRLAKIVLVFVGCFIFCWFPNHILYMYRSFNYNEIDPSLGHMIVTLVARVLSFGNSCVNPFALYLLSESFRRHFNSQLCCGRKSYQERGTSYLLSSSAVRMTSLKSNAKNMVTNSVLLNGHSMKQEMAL
T2 sequence (P30550 whole entry): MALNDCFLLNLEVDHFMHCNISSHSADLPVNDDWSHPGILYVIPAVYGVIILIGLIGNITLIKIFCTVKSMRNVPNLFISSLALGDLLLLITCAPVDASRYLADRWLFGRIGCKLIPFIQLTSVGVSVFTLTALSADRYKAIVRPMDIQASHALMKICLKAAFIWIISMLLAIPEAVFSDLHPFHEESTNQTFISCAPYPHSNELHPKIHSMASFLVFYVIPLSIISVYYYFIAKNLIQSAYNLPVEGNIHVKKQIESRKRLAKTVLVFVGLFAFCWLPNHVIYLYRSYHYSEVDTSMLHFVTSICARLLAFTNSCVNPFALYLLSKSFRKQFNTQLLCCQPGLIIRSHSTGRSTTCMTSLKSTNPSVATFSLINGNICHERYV

Row | SMILES | lordosis quotient (LQ) vs LQ before administration [1] | pKi (human NMB receptor (BB1)) | pKi (human GRP receptor (BB2)) | percentage of time spent investigating the male stimulus ([2]; oral, 30-100 mg/kg in PEG 200, 1 h before test (FIG. 19)) | percentage of time spent investigating the male stimulus ([2]; p.o., 3-30 mg/kg in 0.5% methyl cellulose, 1 h before test (FIG. 20)) | MED for increase of lordosis quotient (LQ) ([1]; single oral administration, 10-100 mg/kg in PEG200, 1 h after administration) [mg/kg] | melting point [°C]
1 | CCCN1CCC[C@@H]2Cc3nc(N)ncc3C[C@H]21 [quinelorane, reference compound] | significantly (P<0.01) increased the LQ |  |  |  |  |  | 
2 | COc1ccc(C2(CNC(=O)[C@](C)(Cc3c[nH]c4ccccc34)Nc3nc(-c4ccc([N+](=O)[O-])cc4)co3)CCCCC2)nc1 [Example 9, (S)-3-(1H-Indol-3-yl)-N-[1-(5-methoxy-pyridin-2-yl)-cyclohexylmethyl]-2-methyl-2-[4-(4-nitro-phenyl)-oxazol-2-ylamino]-propionamide] | dose-dependently (10-100 mg/kg) increased the LQ | 8.40 | 7.62 | dose-dependently (30-100) increased the percentage of time spent investigating the male stimulus | dose-dependently (3-30 mg/kg) increased the percentage of time spent investigating the male stimulus | 100 | 100 to 105
